Results from patent publication US20260021181A1, “CHIMERIC COSTIMULATORY RECEPTORS, CHEMOKINE RECEPTORS, AND THE USE OF SAME IN CELLULAR IMMUNOTHERAPIES” (Iovance Biotherapeutics, Inc., priority 2022, published 2026).
One block for each molecule: values may come before it.

Legend:
TIL [1] = assay: AKT inhibitor (ipatasertib) added during ex vivo TIL expansion: expansion, viability, phenotype; assay type: cell-based
Procedure: Patient tumors from different indications were received, fragmented, and subjected to an expansion protocol for TIL manufacturing. Different doses (0.3 μM and 1 μM) of the pan-AKT inhibitor ipatasertib were added to the culture during ex vivo expansion. The expansion potential, as well as the phenotypic and functional characteristics were evaluated on the final TIL product. Eight tumors, including tumors from melanoma, NSCLC, head and neck cancer, ovarian cancer, and breast cancer, were used in combination with the Gen 2 process. […] Expansion, viability and T cell distribution in control and AKT inhibitor-treated TILs are shown. TILs were left untreated or treated with increasing concentrations of the pan-AKT inhibitor ipatasertib. Treatment was added either during the pre-REP and REP (blue bars) or during the REP stage only (purple bars). Fold expansion and viability of TIL at the end of the 22-day expansion process are shown. Frequency of CD8^+, CD4^+ and CD4^+ (Foxp3^+) cells after the expansion process on cryopreserved cells are also shown.

TIL [2] = assay: Cytokine expression of TILs after overnight anti-CD3/CD28 bead stimulation; assay type: cell-based
From the text: Control or decitabine-treated cryopreserved TILs were thawed and stained for flow cytometry analysis.

PD-L1 [3] = target: PD-L1 (Homo sapiens, UniProt Q9NZQ7); assay: Hek-IL-18 SEAP reporter assay of CCR8 and CCR8.2 stimulated with PD-L1; assay type: cell-based; details: 650 nm, IL-18 standard
Procedure: The biological function of the CCR constructs was tested with Hek-IL-18 SEAP reporter lines. CCR8 and CCR8.2 transduced HekIL-18 reporter cells (5×10^4) were stimulated with the indicated concentration of PD-L1 (His tagged) in the presence of anti-His antibody (antibody:protein ratio=2:1; e.g., for 5 μg/mL PD-L1, add 10 μg/mL anti-His antibody). After 24 hours, supernatants were harvested, and SEAP level was determined with a spectrophotometer at 650 nm after adding Quanti-blue solution. CCR12 and CCR12.2 transduced HekIL-18 reporter cells (5×10^4) were stimulated with the indicated concentration of TROP-2 (His tagged) in the presence of anti-His antibody (antibody:protein ratio=2:1). After 24 hours, supernatants were harvested, and SEAP level was determined with a spectrophotometer at 650 nm after adding Quanti-blue solution.

PD-L1 [4] = target: T1, PD-L1 (human, UniProt Q9NZQ7 19-238, limits assumed); assay: EC50 of anti-PD-L1 antibody clone; assay not given
T1 construct: also called hPD-L1; CD274

[5] = target: T2, human PD-L1 on hPD-L1 Raji cells (human, UniProt Q9NZQ7 19-290); assay: flow cytometry on hPD-L1 Raji cells, titration in the presence of the other antibody
T2 construct: whole, on cells
T2 sequence (Q9NZQ7 19-290): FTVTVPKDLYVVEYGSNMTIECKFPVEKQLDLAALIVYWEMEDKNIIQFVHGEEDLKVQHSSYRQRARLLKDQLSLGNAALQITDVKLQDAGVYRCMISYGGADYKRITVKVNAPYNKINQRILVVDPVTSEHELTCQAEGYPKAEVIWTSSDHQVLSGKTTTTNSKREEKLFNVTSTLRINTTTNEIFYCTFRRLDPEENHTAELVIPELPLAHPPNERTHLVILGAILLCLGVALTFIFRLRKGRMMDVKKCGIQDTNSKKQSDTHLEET

T1 sequence (Q9NZQ7 19-238 limits assumed): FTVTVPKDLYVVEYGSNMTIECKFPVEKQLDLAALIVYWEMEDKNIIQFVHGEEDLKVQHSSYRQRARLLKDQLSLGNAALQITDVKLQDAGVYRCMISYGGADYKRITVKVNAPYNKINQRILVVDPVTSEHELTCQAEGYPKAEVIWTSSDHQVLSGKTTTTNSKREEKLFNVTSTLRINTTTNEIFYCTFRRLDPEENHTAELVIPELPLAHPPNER
Sequence of PD-L1 (Homo sapiens, UniProt Q9NZQ7) (Q9NZQ7 19-290): as the sequence (Q9NZQ7 19-290) above

IL-18 stimulation equivalent to an OD value of 0.5 (PD-L1 [3]): about 3.175 pg/mL
Molecule: IL-18: IL-18 standard in Hek-IL-18 SEAP reporter assay

binding result [5]: binds
B2: 19H9-IgG4-Flag (antibody)
chain: QVQLQESGGGLVKPGGSLRLSCAASGFTFSSYSMNWVRQAPGKGLEWVSGINTAGDTHYPESVKGRFTISRDNARNSLNLQMNSLRAEDTAVYYCVRERVEREYSGYDAFDIWGQGTTVTVSAGGGGSGGGGSGGGGSGAPNFMLTQPHSVSESLGKTVTISCTGSSGSIARKFVQWYQQRPGSSPTTVIYENNQRPSGVSDRFSGSIGSSSNSASLTISGLKTEDEADYYCQSYDSSNVVFGGGTKVTVL
notes: The order of the parts and the format of the tested protein are not spelled out; Detected with anti-Flag-AF488; also called 19H-IgG4-Flag; scFv-Fc antibody 19H9; not shown: IgG4 part, known only from the name 19H9-IgG4-Flag; Flag tag

binding result [5]: binds
B3: 38A1-IgG4-HA (antibody)
chain: EVQLVESGGGLVQPGGSLRLSCAASGFTFSNYAMSWVRQAPGKGLEWVSTISGSGGTTYYADSVKGRFTISRDNSKNTLYLQMNSLRVEDTAVYYCAKDWFRSSSPDAFDIWGQGTTVTVSAGGGGSGGGGSGGGGSGAPSYVLTQPPSVSVAPGQTARITCGGNNIGRKIVHWYQQRPGQAPVLVIYYDTDRPAGIPERFSGSNSGNMATLTISTVGAGDEADYYCQVWDTGSDHVVFGGGTKLTVL
notes: The order of the parts and the format (scFv-IgG4 Fc-HA) of the tested protein are not spelled out; Detected with anti-HA-APC; also called anti-PD-L1 Ab clone 38A1-IgG4-HA; scFv-Fc antibody 38A1; not shown: IgG4 part, known only from the name 38A1-IgG4-HA; HA tag

More lines, now with the values behind:

Molecule: CC(C)NC[C@@H](C(=O)N1CCN(c2ncnc3c2[C@H](C)C[C@H]3O)CC1)c1ccc(Cl)cc1 [ipatasertib]
IL-7R and CXCR3 expression on CD8+ TILs (TIL [1]): increase | TOX expression following stimulation (TIL [1]): lower | frequency of CD8+ TEMRA cells (TIL [1]): increase | frequency of less differentiated CD8+CD69−CD39− T cells on CD8+ and CD4+ TILs (TIL [1]): increases | expansion and viability of TILs relative to controls (TIL [1]; 1 μM dose): equivalent | expression of CD38 and transcription factors T-bet and TOX in CD39− CD69− cells (TIL [1]; 1 μM dose): reduced expression | population of less differentiated CD39− CD69− cells (TIL [1]; 1 μM dose): doubled | T cell ratios (CD8+, CD4+, CD4+ Foxp3+) (TIL [1]; after the expansion process): without affecting | TIL expansion and viability (TIL [1]; pre-REP and REP or REP only, end of 22-day expansion): maintains | frequency of IFNγ+TNFα+CD8+ T cells (TIL [2]): increase | cytokine output following stimulation (TIL [2]; 1 μM at pre-REP and REP, anti-CD3/CD28 beads overnight, bead-to-cell ratio 1:5): higher cytokine output

B1: 19H9-IgG4-Flag (antibody)
chain: B2 chain
EC50 (PD-L1 [4]): 0.125 nM

B4: 38A1-IgG4-HA (antibody)
chain: B3 chain
EC50 (PD-L1 [4]): 0.404 nM
